Results as given in publication PMC10364322, “Evaluation of chronic drug-induced electrophysiological and cytotoxic effects using human-induced pluripotent stem cell-derived cardiomyocytes (hiPSC-CMs)” (Frontiers in Pharmacology, 2023).
Like-named read-outs stand apart in the source and are kept apart here.

Experiments:
[1] = system: hiPSC-CMs (iCell-Cardiomyocytes^2); assay: MEA impedance (cytotoxicity readout) in hiPSC-CMs
Method: (§1) Cells were seeded according to the instructions of the cell provider, in fibronectin-coated 48-well MEA plates (Axion Cytoview Plates, M768-tMEA-48B) at a density suited to form a monolayer (i.e., 50 K/well) and maintained in culture in a stage incubator (37°C, 5% CO2).
(§2) At least 4 h before the beginning of the baseline measurements, a full medium exchange was performed (to a final volume of 400 µL per well). Neat compounds were dissolved in 100% DMSO at a stock concentration 1000-fold the highest target concentration. […] Afterwards, these stock solutions were diluted with Maintenance medium (CDi), to 10-fold the intended concentration. The final DMSO concentration in test solutions and vehicle control was 0.1%.
(§3) Spontaneous electrical activity was recorded in hiPSC-CMs monolayers as field potentials using the Maestro Pro MEA instrument (Axion Biosystems, Atlanta, GA, United States), which allows the maintenance of accurate temperature and CO2 levels (37°C, 5% CO2). After the plate was placed in the Maestro Pro and allowed to equilibrate for about 10 min, baseline acquisition of field potential and impedance signals was initiated and lasted for 5 min each. […] As impedance measures resistance of an applied alternating current through the hiPSC-CMs monolayer, a reduction in the attachment of hiPSC-CMs to the bottom of the well due to cell death or changes in the monolayer morphology, causes a drop in the impedance signal.
(§4) After the acquisition of all timepoint measurements, raw data were loaded into the data analysis software Axion Cardiac Analysis Tool (V.3.2.3). […] A.csv file containing information on the FP parameters per well, per time point, was then generated and used as input to the in-house data management system (SPEcII v.3.4, Unlimit-IT, Geel, Belgium), where descriptive statistics were calculated. Summary values at different time points after compound addition are expressed as percent change from baseline and shown as mean ± standard deviation (SD).
(§5) The nonparametric Wilcoxon-Mann Whitney Test was used to compare the percent change from the baseline (Δ%) value between the group treated with the compound at a given concentration and the group treated with the DMSO at each matching time points. A two-sided test at 5% significance level was considered. […] To assess the physiological relevance of changes, a tolerance interval of DMSO experiments was calculated at each time point, for each parameter. […] TIs indicate an interval where, with a certain confidence level (1- α = 0.95), a specified proportion (p = 0.80) of percent change for DMSO data falls. The lower and upper limits based on the TI values were used as cut-offs for the interpretation of the changes. For the cytotoxicity assays, measurements of fluorescence (after background fluorescence subtraction) from wells treated with the compounds were normalized by the average value of vehicle experiments (DMSO 0.1%) to obtain a DMSO-corrected, delta/delta percent change. Experiments from each condition, as delta/delta percent, were averaged and expressed as mean ± SD. Statistical analysis was performed using a non-parametric test (Kruskal-Wallis) and each treatment condition was compared to the relative DMSO 0.1%. Differences were considered statistically significant when the p-value was smaller than 0.05.

[2] = free therapeutic Cmax in humans; ref FDA-approved drug packages, PharmaPendium; cited from earlier work
[3] = system: hiPSC-CMs (iCell-Cardiomyocytes^2)
Method: as §1, §2, §3
The potential presence of various arrhythmic events was evaluated and noted during the data analysis.
as §4, §5

## CC1(C)S[C@@H]2[C@H](NC(=O)[C@H](N)c3ccc(O)cc3)C(=O)N2[C@H]1C(=O)O [Amoxicillin]
[1]; 1 µM, 2h
  Imp (impedance), % change from baseline: 2±4%
[1]; 1 µM, 24h
  Imp (impedance), % change from baseline: 9±7%
[1]; 1 µM, 48h
  Imp (impedance), % change from baseline: -2±4%
[1]; 1 µM, 72h
  Imp (impedance), % change from baseline: 4±3 %
[1]; 1 µM, 96h
  Imp (impedance), % change from baseline: 0±8%
[1]; 3 µM, 72h
  Imp (impedance), % change from baseline: 1±4%
[1]; 3 µM, 96h
  Imp (impedance), % change from baseline: -2±6%
[1]; 3 µM, 2h
  Imp (impedance), % change from baseline: 2±3%
[1]; 3 µM, 24h
  Imp (impedance), % change from baseline: 7±6%
[1]; 3 µM, 48h
  Imp (impedance), % change from baseline: -3±6%
[1]; 10 µM, 2h
  Imp (impedance), % change from baseline: 2±3%
[1]; 10 µM, 24h
  Imp (impedance), % change from baseline: 7±6%
[1]; 10 µM, 48h
  Imp (impedance), % change from baseline: -2±3%
[1]; 10 µM, 72h
  Imp (impedance), % change from baseline: 1±4%
[1]; 10 µM, 96h
  Imp (impedance), % change from baseline: -1±6%
[1]; 30 µM, 2h
  Imp (impedance), % change from baseline: 2±3%
[1]; 30 µM, 24h
  Imp (impedance), % change from baseline: 2±4%
[1]; 30 µM, 48h
  Imp (impedance), % change from baseline: -1±3%
[1]; 30 µM, 72h
  Imp (impedance), % change from baseline: -6±4%
[1]; 30 µM, 96h
  Imp (impedance), % change from baseline: -4±5%
[2]
  Free Cmax: 16.1 µM
[3]; 1 µM, 2h
  BR (beating rate), % change from baseline: 8±1%
  FPD (field-potential duration), % change from baseline: -1±2.2%
  FPDc (field-potential duration corrected by beat-rate), % change from baseline: 1.6±2.2%
[3]; 1 µM, 24h
  BR (beating rate), % change from baseline: 16±2%
  FPD (field-potential duration), % change from baseline: -2.8±1.5%
  FPDc (field-potential duration corrected by beat-rate), % change from baseline: 2.1±1.1%
[3]; 1 µM, 48h
  BR (beating rate), % change from baseline: 3±2%
  FPD (field-potential duration), % change from baseline: 4.3±3%
  FPDc (field-potential duration corrected by beat-rate), % change from baseline: 5.3±2.8%
[3]; 1 µM, 72h
  BR (beating rate), % change from baseline: -2±3%
  FPD (field-potential duration), % change from baseline: 8.1±4.8%
  FPDc (field-potential duration corrected by beat-rate), % change from baseline: 7±3.6%
[3]; 1 µM, 96h
  BR (beating rate), % change from baseline: -21±2 %
  FPD (field-potential duration), % change from baseline: 16.9±3%
  FPDc (field-potential duration corrected by beat-rate), % change from baseline: 8.1±2%
[3]; 3 µM, 72h
  BR (beating rate), % change from baseline: -4±3%
  FPD (field-potential duration), % change from baseline: 9.6±3.7%
  FPDc (field-potential duration corrected by beat-rate), % change from baseline: 8.4±2.9%
[3]; 3 µM, 96h
  BR (beating rate), % change from baseline: -20±4 %
  FPD (field-potential duration), % change from baseline: 18.2±7.7%
  FPDc (field-potential duration corrected by beat-rate), % change from baseline: 9.6±6.7%
[3]; 3 µM, 2h
  BR (beating rate), % change from baseline: 8±1%
  FPD (field-potential duration), % change from baseline: 0.7±2.8%
  FPDc (field-potential duration corrected by beat-rate), % change from baseline: 3.1±2.9%
[3]; 3 µM, 24h
  BR (beating rate), % change from baseline: 16±3%
  FPD (field-potential duration), % change from baseline: -2.7±2.9%
  FPDc (field-potential duration corrected by beat-rate), % change from baseline: 2.3±2.9%
[3]; 3 µM, 48h
  BR (beating rate), % change from baseline: 2±2%
  FPD (field-potential duration), % change from baseline: 5.1±3.9%
  FPDc (field-potential duration corrected by beat-rate), % change from baseline: 5.7±3.9%
[3]; 10 µM, 2h
  BR (beating rate), % change from baseline: 8±3%
  FPD (field-potential duration), % change from baseline: 0.5±3.7%
  FPDc (field-potential duration corrected by beat-rate), % change from baseline: 3±3.1%
[3]; 10 µM, 24h
  BR (beating rate), % change from baseline: 18±6 %
  FPD (field-potential duration), % change from baseline: -3.1±4.9%
  FPDc (field-potential duration corrected by beat-rate), % change from baseline: 2.2±3.9%
[3]; 10 µM, 48h
  BR (beating rate), % change from baseline: 3±4%
  FPD (field-potential duration), % change from baseline: 6.6±2.8%
  FPDc (field-potential duration corrected by beat-rate), % change from baseline: 7.4±2.1%
[3]; 10 µM, 72h
  BR (beating rate), % change from baseline: -1±8%
  FPD (field-potential duration), % change from baseline: 9.6±7.3%
  FPDc (field-potential duration corrected by beat-rate), % change from baseline: 8.9±4.3%
[3]; 10 µM, 96h
  BR (beating rate), % change from baseline: -19±5 %
  FPD (field-potential duration), % change from baseline: 18.3±5.7%
  FPDc (field-potential duration corrected by beat-rate), % change from baseline: 10.4±4.4%
[3]; 30 µM, 2h
  BR (beating rate), % change from baseline: 5±4%
  FPD (field-potential duration), % change from baseline: -0.1±3.5%
  FPDc (field-potential duration corrected by beat-rate), % change from baseline: 1.6±2.8%
[3]; 30 µM, 24h
  BR (beating rate), % change from baseline: 15±6%
  FPD (field-potential duration), % change from baseline: -4.2±3.4%
  FPDc (field-potential duration corrected by beat-rate), % change from baseline: 0.5±2.7%
[3]; 30 µM, 48h
  BR (beating rate), % change from baseline: 1±5%
  FPD (field-potential duration), % change from baseline: 5.6±1.7%
  FPDc (field-potential duration corrected by beat-rate), % change from baseline: 6±2.2%
[3]; 30 µM, 72h
  BR (beating rate), % change from baseline: -3±8%
  FPD (field-potential duration), % change from baseline: 8.8±5.4%
  FPDc (field-potential duration corrected by beat-rate), % change from baseline: 7.7±3.8%
[3]; 30 µM, 96h
  BR (beating rate), % change from baseline: -20±4 %
  FPD (field-potential duration), % change from baseline: 16.4±1.3%
  FPDc (field-potential duration corrected by beat-rate), % change from baseline: 7.9±2.1%
